Data: ChEMBL document CHEMBL1201862, “PubChem BioAssay data set” (2004)
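Cells were grown in 96-well plates and exposed to each compound for 48 hours at five concentrations; endpoints were interpolated linearly between bracketing concentrations, or set to the highest concentration if not reached. Here, GI50 denotes the concentration required for 50% inhibition of growth.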 Calls of active or inactive are those of the source. Cut-off read from the data, not from the text of the source: active = GI50 up to about 1.1 µM and inactive = higher.

Experiments:
Test in all cases: inhibition of tumour cell growth, NCI panel, 48 h
786-0 = test system: 786-0
A549 = test system: A549
ACHN = test system: ACHN
CCRF-CEM = test system: CCRF-CEM
COLO 205 = test system: COLO 205
DLD-1 = test system: DLD-1
DMS-114 = test system: DMS-114
EKVX = test system: EKVX
HCC 2998 = test system: HCC 2998
HL-60 = test system: HL-60
HOP-18 = test system: HOP-18
HOP-62 = test system: HOP-62
HOP-92 = test system: HOP-92
HT-29 = test system: HT-29
IGROV-1 = test system: IGROV-1
K562 = test system: K562
KM-20L2 = test system: KM-20L2
KM12 = test system: KM12
LOX IMVI = test system: LOX IMVI
LXFL 529 = test system: LXFL 529
M14 = test system: M14
M19-MEL = test system: M19-MEL
MOLT-4 = test system: MOLT-4
NCI-H226 = test system: NCI-H226
NCI-H23 = test system: NCI-H23
NCI-H460 = test system: NCI-H460
NCI-H522 = test system: NCI-H522
OVCAR-3 = test system: OVCAR-3
OVCAR-4 = test system: OVCAR-4
OVCAR-5 = test system: OVCAR-5
OVCAR-8 = test system: OVCAR-8
RPMI-8226 = test system: RPMI-8226
RXF 393 = test system: RXF 393
RXF 631 = test system: RXF 631
SF-295 = test system: SF-295
SF-539 = test system: SF-539
SK-MEL-28 = test system: SK-MEL-28
SK-MEL-5 = test system: SK-MEL-5
SK-OV-3 = test system: SK-OV-3
SN12C = test system: SN12C
SNB-19 = test system: SNB-19
SNB-75 = test system: SNB-75
SNB-78 = test system: SNB-78
SR = test system: SR
SW-620 = test system: SW-620
TK-10 = test system: TK-10
UACC-257 = test system: UACC-257
UACC-62 = test system: UACC-62
UO-31 = test system: UO-31

**Q.** Which results are given for `Oc1cc(-c2ccccn2)nc2cccc(F)c12`?
**A.** GI50 (786-0): > 100 µM (inactive); GI50 (A549): > 100 µM (inactive); GI50 (ACHN): > 100 µM (inactive); GI50 (CCRF-CEM): > 100 µM (inactive); GI50 (COLO 205): > 100 µM (inactive); GI50 (DLD-1): > 100 µM (inactive); GI50 (DMS-114): > 100 µM (inactive); GI50 (EKVX): > 100 µM (inactive); GI50 (HCC 2998): 0.641 µM (active); GI50 (HL-60): > 100 µM (inactive); GI50 (HOP-18): > 100 µM (inactive); GI50 (HOP-62): > 100 µM (inactive); GI50 (HOP-92): > 100 µM (inactive); GI50 (HT-29): > 100 µM (inactive); GI50 (IGROV-1): > 100 µM (inactive); GI50 (K562): > 100 µM (inactive); GI50 (KM-20L2): > 100 µM (inactive); GI50 (KM12): > 100 µM (inactive); GI50 (LOX IMVI): 89.9 µM (inactive); GI50 (LXFL 529): 74.1 µM (inactive); GI50 (M14): > 100 µM (inactive); GI50 (M19-MEL): > 100 µM (inactive); GI50 (MOLT-4): > 100 µM (inactive); GI50 (NCI-H226): > 100 µM (inactive); GI50 (NCI-H23): > 100 µM (inactive); GI50 (NCI-H460): > 100 µM (inactive); GI50 (NCI-H522): > 100 µM (inactive); GI50 (OVCAR-3): > 100 µM (inactive); GI50 (OVCAR-4): > 100 µM (inactive); GI50 (OVCAR-5): > 100 µM (inactive); GI50 (OVCAR-8): > 100 µM (inactive); GI50 (RPMI-8226): > 100 µM (inactive); GI50 (RXF 393): > 100 µM (inactive); GI50 (RXF 631): > 100 µM (inactive); GI50 (SF-295): > 100 µM (inactive); GI50 (SF-539): > 100 µM (inactive); GI50 (SK-MEL-28): 0.644 µM (active); GI50 (SK-MEL-5): 61.4 µM (inactive); GI50 (SK-OV-3): > 100 µM (inactive); GI50 (SN12C): > 100 µM (inactive); GI50 (SNB-19): > 100 µM (inactive); GI50 (SNB-75): 51.4 µM (inactive); GI50 (SNB-78): > 100 µM (inactive); GI50 (SR): > 100 µM (inactive); GI50 (SW-620): > 100 µM (inactive); GI50 (TK-10): > 100 µM (inactive); GI50 (UACC-257): > 100 µM (inactive); GI50 (UACC-62): 95.3 µM (inactive); GI50 (UO-31): > 100 µM (inactive)
